Data: US7906156B2, “CB2 receptors blocks accumulation of human hepatic myofibroblasts: a novel antifibrogenic pathway in the liver” (priority 2003, dated 2011)
Where a name gives a salt, the structure may show the parent alone. Residues, ends and D or L forms follow the SMILES beside them. *: point of attachment. Cbz = O=C(OCc1ccccc1)*; CH2F = FC*

Assays:
[1] = system: human hepatic myofibroblasts; experiment: cells; type: cell-based; details: for IC50 / maximal reduction of PDGF-BB-stimulated DNA synthesis / effect on DNA synthesis / growth: 20 ng/ml PDGF-BB; for IC50: 30 hrs, read-out: half maximal inhibition (IC50) of DNA synthesis; for maximal reduction of PDGF-BB-stimulated DNA synthesis: at 500 nM; for effect on the antiproliferative effect of THC: pretreatment before THC + PDGF-BB
[2] = system: human hepatic myofibroblasts; experiment: Cell viability (MTS assay) / cytotoxicity of serum-deprived hepatic myofibroblasts; type: cell-based; details: for IC50: 16 hours, MTS assay, read-out: half maximal decrease in cell viability
Protocol: Cell viability. […] CellTiter 96 AQueous One Solution reagent was added to each well and absorbance was recorded at 490 nm.

reactive oxygen species = experiment: Intracellular reactive oxygen species (DCFH-DA fluorescence); type: cell-based, human
[3] = system: human hepatic myofibroblasts; experiment: DNA laddering and DAPI nuclear morphology; type: cell-based
Protocol: (A) Phase-contrast analysis (Magnification ×100). […] (C) Caspase-3-like activity.
Apoptosis assays. […] Nuclear morphology was assayed using DAPI staining.

cAMP = cAMP levels in human hepatic myofibroblasts; type: cell-based; details: not shown
COX-2 = COX-2 protein induction (Western blot); details: 8 h
caspase-3 = experiment: Caspase-3-like activity on cell lysates; details: for effect on caspase-3 activation elicited by THC: pretreatment before THC
COX = COX activity (PGE2 released after arachidonic acid); details: 1000 nM THC, 8 h
CB2 receptors [4] = target: T1, CB2 receptors (Homo sapiens, UniProt P34972); experiment: [35S]GTPγS binding assay, membranes of human hepatic myofibroblasts
CB2 receptors [5] = target: T1, CB2 receptors; experiment: [35S]GTPγS binding assay, membranes of CHO cells overexpressing CB2 receptors
CB1 receptors = target: T2, CB1 receptors (Homo sapiens, UniProt P21554); type: cell-based
T2 construct: host or cells: CHO cells

CB2 receptors [6] = target: T1, CB2 receptors; experiment: forskolin-stimulated cAMP levels in CHO overexpressing CB2 receptors; type: cell-based; parameters: host or cells: CHO cells; details: CHO overexpressing CB2, 100 nM, 10 min

T1 sequence (P34972 whole entry): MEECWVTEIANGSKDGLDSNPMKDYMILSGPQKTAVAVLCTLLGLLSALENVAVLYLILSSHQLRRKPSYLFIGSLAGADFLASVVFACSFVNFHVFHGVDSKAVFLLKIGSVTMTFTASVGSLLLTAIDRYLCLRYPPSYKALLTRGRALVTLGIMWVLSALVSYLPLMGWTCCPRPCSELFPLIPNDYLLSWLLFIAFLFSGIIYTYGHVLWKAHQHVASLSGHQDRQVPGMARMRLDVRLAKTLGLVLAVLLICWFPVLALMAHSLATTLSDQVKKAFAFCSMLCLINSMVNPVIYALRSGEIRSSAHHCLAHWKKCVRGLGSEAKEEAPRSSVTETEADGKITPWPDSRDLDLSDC
T2 sequence (P21554 whole entry): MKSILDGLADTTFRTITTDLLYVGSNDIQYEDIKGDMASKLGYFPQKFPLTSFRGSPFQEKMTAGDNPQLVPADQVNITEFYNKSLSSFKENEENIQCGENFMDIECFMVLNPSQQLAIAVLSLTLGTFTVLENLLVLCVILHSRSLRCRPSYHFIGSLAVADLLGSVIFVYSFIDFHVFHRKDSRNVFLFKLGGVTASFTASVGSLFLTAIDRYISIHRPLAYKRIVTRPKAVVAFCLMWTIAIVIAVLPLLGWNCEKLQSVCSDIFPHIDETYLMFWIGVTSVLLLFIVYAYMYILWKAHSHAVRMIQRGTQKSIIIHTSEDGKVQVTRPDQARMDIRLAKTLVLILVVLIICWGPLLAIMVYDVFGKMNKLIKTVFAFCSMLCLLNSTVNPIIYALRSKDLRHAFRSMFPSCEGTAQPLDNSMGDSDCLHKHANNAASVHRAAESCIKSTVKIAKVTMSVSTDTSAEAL

Compound: [2H]C([2H])([2H])CCCCc1cc(O)c2c(c1)OC(C)(C)C1CCC(C)=CC21 (stereo not drawn) [THC, 6a,7,8,10a-Tetrahydro-6,6,9-trimethyl-3-(pentyl-5,5,5-d3)-6H-dibenzo(b,d)pyran-1-ol]
- IC50 ([1]; Homo sapiens): 200 nM
- maximal reduction of PDGF-BB-stimulated DNA synthesis [1]: 50%
- IC50 ([2]; Homo sapiens, serum-deprived cells): 1500 nM
- concentration giving maximal decrease in cell survival ([2]; serum-deprived cells): 2 µM
- cytotoxic / apoptotic effect on hepatic myofibroblasts ([2]; serum-deprived cells): cytotoxic effects
- time to ROS production after exposure (reactive oxygen species): ≤ 20 min
- increase in production of intracellular reactive oxygen species (reactive oxygen species; 3 μM THC): 1.5 fold
- DNA laddering on agarose gel electrophoresis ([3]; 4 μM THC): dramatic DNA laddering
- nuclear morphology (DAPI staining) ([3]; 4 μM THC): condensed nuclei
- cAMP levels in response to compound (cAMP): not raised
- induction of COX-2 (COX-2): strong induction
- time of peak caspase-3 activity (caspase-3): 4 to 6 h
- maximal increase of caspase-3 activity (caspase-3; 4 μM THC, 5 hr (FIG. 6C)): 6.3±2 fold
- maximal increase in caspase-3 activity (caspase-3; time course, peak after 4-6 hr): 6.7 fold
- COX activity (COX): stimulates COX activity
- concentration giving maximal effect on [35S]GTPγS binding (CB2 receptors [4]): 100 nM
- concentration giving maximal activation of [35S]GTPγS binding (CB2 receptors [5]): 10 nM

Compound: Cc1c(C(=O)c2cccc3ccccc23)c2cccc3c2n1[C@H](CN1CCOCC1)CO3 [WIN-55.212-2, (R)-(+)-[2,3-Dihydro-5-methyl-3-(4-morpholinylmethyl)pyrrolo[1,2,3-de]-1,4-benzoxazin-6-yl]-1-naphthalenylmethanone mesylate]
- cytotoxic / apoptotic effect on hepatic myofibroblasts ([2]; serum-deprived cells): cytotoxic

Compound: [Cl-].[Mn+3].[O-]c1ccccc1C=NCCN=Cc1ccccc1[O-] [EUK 8]
- effect on the antiproliferative effect of THC [1]: did not affect
- effect on caspase-3 activation elicited by THC (caspase-3): blunted

Compound: Cc1c(C(=O)NN2CCCCC2)nn(-c2ccc(Cl)cc2Cl)c1-c1ccc(Cl)cc1 [SR 141716, N-pipéridino-5-(4-chlorophényl)-1-(2,4-dichlorophényl)-4-méthylpyrazole-3-carboxamide]
- effect on apoptosis elicited by HU-210 [2]: had no effect

Compound: CCCCCCC(C)(C)c1cc(O)c2c(c1)OC(C)(C)[C@@H]1CC=C(CO)C[C@@H]21 [HU-210, (6aR)-trans-3-(1,1-Dimethylheptyl)-6a,7,10,10a-tetrahydro-1-hydroxy-6,6-dimethyl-6H-dibenzo[b,d]pyran-9-methanol]
- cytotoxic / apoptotic effect on hepatic myofibroblasts ([2]; serum-deprived cells): cytotoxic

Compound: COC(=O)CC(NC(=O)C(C)NC(=O)C(NC(=O)OCc1ccccc1)C(C)C)C(=O)CF (stereo not drawn) [ZVAD-fmk, Z-val-Ala-Asp (OCH3)-Fluoromethyl ketone] (Cbz-Val-Ala-Asp(OMe)-CH2F; configuration not given here)
- effect on THC-induced DNA laddering ([3]; 50 μM ZVAD): blocked
- effect on caspase-3 activation elicited by THC (caspase-3): totally blunted

Compound: CC(=O)N[C@@H](CS)C(=O)O [NAC, N-Acetyl Cysteine]
- effect on the antiproliferative effect of THC [1]: did not affect
- effect on caspase-3 activation elicited by THC (caspase-3): blunted

Compound: C=C(C)[C@@H]1CCC(C)=C[C@H]1c1c(O)cc(CCCCC)cc1O [cannabidiol]
- effect on DNA synthesis / growth [1]: reproduced
- cytotoxic / apoptotic effect on hepatic myofibroblasts ([2]; serum-deprived cells): reproduced

Compound: CCCCC/C=C\C/C=C\C/C=C\C/C=C\CCCC(=O)NCCO [anandamide, N-(2-Hydroxyethyl)-5Z,8Z,11Z,14Z-eicosatetraenamide]
- cytotoxic / apoptotic effect on hepatic myofibroblasts ([2]; serum-deprived cells): cytotoxic

Compound: CCCCCCC(C)(C)c1ccc([C@@H]2C[C@H](O)CC[C@H]2CCCO)c(O)c1 [CP 55940, (−)-cis-3-[2-Hydroxy-4-(1,1-dimethylheptyl)phenyl]-trans-4-(3-hydroxypropyl)cyclohexanol]
- cytotoxic / apoptotic effect on hepatic myofibroblasts ([2]; serum-deprived cells): cytotoxic

Compound: CC(C)Cc1ccc(C(C)C(=O)O)cc1 (stereo not drawn) [ibuprofen]
- effect on the antiproliferative effect of THC [1]: blunted
- effect on caspase-3 activation elicited by THC (caspase-3): did not affect

Compound: N-[1S)-endo-1,3,3,-trimethyl bicyclo[2.2.1]heptan-2-yl]-5-(choloro-3-methylphenyl)-1-(4-methyl-benzyl)-pyrazole-3-carboxamide [SR 144528]
- effect on the antiproliferative effect of THC [1]: strongly reduced
- effect on apoptosis elicited by HU-210 [2]: prevented
- effect of compound alone on cell viability ([2]; without THC): had no effect
- effect on caspase-3 activation elicited by THC (caspase-3): no activation of caspase-3
- effect of compound alone on caspase-3-like activity (caspase-3; without THC): had no effect

Compound: CCCn1c(C)c(C(=O)c2cccc3ccccc23)c2ccccc21 [JWH-015, (2-Methyl-1-propyl-1H-indol-3-yl)-1-naphthalenylmethanone]
- effect on DNA synthesis / growth [1]: reproduced
- IC50 [1]: 150 nM
- maximal reduction of PDGF-BB-stimulated DNA synthesis [1]: 60%
- cytotoxic / apoptotic effect on hepatic myofibroblasts ([2]; serum-deprived cells): apoptotic
- IC50 ([2]; serum-deprived cells): 1000 nM
- cytotoxic / apoptotic effect on hepatic myofibroblasts ([2]; serum-deprived cells, listed as JW-015): reproduced

Compound: CS(=O)(=O)Nc1ccc([N+](=O)[O-])cc1OC1CCCCC1 [NS-398, N-(2-cyclohexyloxy-4-nitrophenyl)methane sulfonamide]
- effect on the antiproliferative effect of THC [1]: reduced
- effect on the antiproliferative effect of THC ([1]; listed as NS 398): blunted
- effect on cytotoxic effect / cell death triggered by THC ([2]; pretreatment before THC): did not affect
- effect on caspase-3 activation elicited by THC (caspase-3): did not affect

Compound: CCCCC/C=C\C/C=C\C/C=C\C/C=C\CCCC(=O)NCCCl [ACEA, N-(2-Chloroethyl)-5Z,8Z,11Z,14Z-eicosatetraenamide]
- effect on DNA synthesis / growth [1]: had no effect
- effect on forskolin-stimulated cAMP levels (CB1 receptors): reduced
- cytotoxic / apoptotic effect on hepatic myofibroblasts ([2]; serum-deprived cells): not cytotoxic
- effect on forskolin-stimulated cAMP levels (CB2 receptors [6]): had no effect
